Laboratory results published in patent publication US20130324530A1 (Novartis AG, priority 2010, published 2013).

Molecular target: Cdk9/cyclinT1 (Homo sapiens, UniProt P50750)
Test: Cdk9/CyclinT1 IMAP assay
Procedure: The final total protein concentration in the assay is 4 nM. […] The final concentration of peptide substrate is 100 nM. […] The final concentration of ATP substrate is 6 uM. IMAP (Immobilized Metal Assay for Phosphochemicals) Progressive Binding reagent is purchased from Molecular Devices, cat#R8139. Fluorescence polarization (FP) is used for detection. The 5TAMRA-cdk7tide peptide is phosphorylated by Cdk9/cyclinT1 kinase using the ATP substrate. The Phospho-5TAMRA-cdk7tide peptide substrate is bound to the IMAP Progressive Binding Reagent. […] IMAP Progressive Binding Reagent is diluted 1:800 in 100% 1× Solution A from Molecular Devices, cat#R7285.
General protocol is as follows: To 10 ul of cdk9/cyclinT1, 0.5 ul of test compound in dimethyl sulfoxide is added. [sequence]-cdk7tide and ATP are mixed. 10 ul of the 5TAMRA-cdk7tide/ATP mix is added to start the reaction. The reaction is allowed to proceed for 4.5 hrs. 60 uL of IMAP Progressive Binding Reagent is added.

Sequence of Cdk9/cyclinT1 (P50750 whole entry): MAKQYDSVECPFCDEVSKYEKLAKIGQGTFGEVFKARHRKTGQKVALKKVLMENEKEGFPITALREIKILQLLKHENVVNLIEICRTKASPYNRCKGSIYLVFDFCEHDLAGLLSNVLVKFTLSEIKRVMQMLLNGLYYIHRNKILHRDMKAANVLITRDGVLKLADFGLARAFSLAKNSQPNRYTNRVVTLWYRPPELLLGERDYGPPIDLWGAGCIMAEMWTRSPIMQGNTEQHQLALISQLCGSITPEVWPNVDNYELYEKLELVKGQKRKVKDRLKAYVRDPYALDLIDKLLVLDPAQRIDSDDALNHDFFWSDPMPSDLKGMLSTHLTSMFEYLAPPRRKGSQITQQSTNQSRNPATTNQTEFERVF
Sequence of Cdk9/cyclinT1 (O60563 whole entry partner): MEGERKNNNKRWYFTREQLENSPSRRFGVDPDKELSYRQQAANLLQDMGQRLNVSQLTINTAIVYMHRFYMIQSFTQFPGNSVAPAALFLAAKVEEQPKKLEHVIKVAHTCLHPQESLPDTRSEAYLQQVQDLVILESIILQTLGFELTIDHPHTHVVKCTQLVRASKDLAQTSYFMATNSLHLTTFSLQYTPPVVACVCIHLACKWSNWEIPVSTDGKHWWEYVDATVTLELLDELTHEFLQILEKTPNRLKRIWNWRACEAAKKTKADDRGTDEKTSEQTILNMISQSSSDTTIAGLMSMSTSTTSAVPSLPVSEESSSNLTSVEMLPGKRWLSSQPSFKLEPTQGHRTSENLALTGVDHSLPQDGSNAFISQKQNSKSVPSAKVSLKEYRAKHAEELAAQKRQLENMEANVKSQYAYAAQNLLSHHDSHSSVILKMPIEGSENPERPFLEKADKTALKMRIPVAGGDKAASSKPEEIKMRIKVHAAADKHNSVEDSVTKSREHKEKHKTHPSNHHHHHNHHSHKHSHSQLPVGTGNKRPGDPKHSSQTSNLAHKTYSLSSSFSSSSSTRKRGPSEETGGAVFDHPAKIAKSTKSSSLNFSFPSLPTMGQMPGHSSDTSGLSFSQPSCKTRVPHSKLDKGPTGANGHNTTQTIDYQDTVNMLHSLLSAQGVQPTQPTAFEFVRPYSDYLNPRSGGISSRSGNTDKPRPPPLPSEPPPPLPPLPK

| Compound | IC50 [nM] |
| --- | --- |
| CN(C)CCCCNc1cc(-c2cncc(NCc3cccc(F)c3)c2)c(Cl)cn1 [Compound 38] | 21 |
| NCCCCNc1cc(-c2cncc(NCc3cccc(F)c3)c2)c(Cl)cn1 [Compound 61] | < 8 |
| CS(=O)(=O)N1CCC(CNc2cncc(-c3cc(N[C@H]4CC[C@H](N)CC4)ncc3Cl)c2)CC1 [Compound 52] | 35 |
| N[C@H]1CC[C@H](Nc2cc(-c3cncc(NCc4ccc(F)c(F)c4)c3)c(Cl)cn2)CC1 [Compound 35] | < 8 |
| N[C@H]1CC[C@H](Nc2cc(-c3cnc(Cl)c(NCC4CCOCC4)c3)c(Cl)cn2)CC1 [Compound 77, N2′-(trans-4-aminocyclohexyl)-5′,6-dichloro-N5-((tetrahydro-2H-pyran-4-yl)methyl)-3,4′-bipyridine-2′,5-diamine] | < 8 |
| C[C@H](CO)Nc1cc(-c2cncc(NCC3CCOCC3)c2)c(Cl)cn1 [Compound 41] | 325 |
| O[C@H]1CC[C@H](Nc2cc(-c3cnc(F)c(NCC4CCOCC4)c3)c(Cl)cn2)CC1 [Compound 54] | < 8 |
| N[C@H]1CC[C@H](Nc2cc(-c3cncc(NCc4cccc(Cl)c4)c3)c(Cl)cn2)CC1 [Compound 42] | < 8 |
| Clc1cnc(N[C@H]2CC[C@H](N3CCCC3)CC2)cc1-c1cc(NCC2CCOCC2)cnc1Cl [Compound 76, 2,5′-dichloro-N2′-(trans-4-(pyrrolidin-1-yl)cyclohexyl)-N5-((tetrahydro-2H-pyran-4-yl)methyl)-3,4′-bipyridine-2′,5-diamine] | 35 |
| Fc1cccc(CNc2cncc(-c3cc(N[C@H]4CC[C@H](N5CCCC5)CC4)ncc3Cl)c2)c1 [Compound 84] | < 8 |
| N[C@H]1CC[C@H](Nc2cc(-c3cncc(NCC4CCCOC4)c3)c(Cl)cn2)CC1 (some centres unmarked) [Compound 29] | 16 |
| N[C@H]1CC[C@H](Nc2cc(-c3cncc(OCc4cccc(F)c4)c3)c(Cl)cn2)CC1 [Compound 88] | < 1 |
| O[C@H]1CCCC[C@@H]1N[C@H]1CC[C@H](Nc2cc(-c3cnc(F)c(NCC4CCOCC4)c3)c(Cl)cn2)CC1 [Compound 92] | 1.8 |
| Clc1cnc(N[C@H]2CC[C@H](N3CCCC3)CC2)cc1-c1cnc(Cl)c(NCC2CCOCC2)c1 [Compound 81] | 45 |
| NC[C@H]1CC[C@H](Nc2cc(-c3cnc(Cl)c(NCC4CCOCC4)c3)c(Cl)cn2)CC1 [Compound 83] | < 8 |
| N[C@H]1CC[C@H](Nc2cc(-c3cncc(NCc4cccnc4)c3)c(Cl)cn2)CC1 [Compound 22] | 9 |
| Fc1cccc(CNc2cncc(-c3cc(NC4CC4)ncc3Cl)c2)c1 [Compound 47] | < 8 |
| N[C@H]1CC[C@@H](Nc2cc(-c3cncc(NCc4cccc(F)c4)c3)c(Cl)cn2)CC1 [Compound 21] | 11 |
| N[C@H]1CC[C@H](Nc2cc(-c3cnc(F)c(NCC4CCOCC4)c3)c(Cl)cn2)CC1 [Compound 55, N2′-(trans-4-aminocyclohexyl)-5′-chloro-6-fluoro-N5-((tetrahydro-2H-pyran-4-yl)methyl)-3,4′-bipyridine-2′,5-diamine] | < 8 |
| Clc1cnc(N[C@H]2CC[C@H](NC[C@H]3CCCO3)CC2)cc1-c1cc(NCC2CCOCC2)cnc1Cl [Compound 25, 2,5′-dichloro-N5-((tetrahydro-2H-pyran-4-yl)methyl)-N2′-(trans-4-(((R)-tetrahydrofuran-2-yl)methylamino)cyclohexyl)-3,4′-bipyridine-2′,5-diamine] | < 8 |
| N[C@H]1CC[C@H](Nc2cc(-c3cncc(NCC4CCCCC4)c3)c(Cl)cn2)CC1 [Compound 23] | 10 |
| Clc1cnc(N[C@H]2CC[C@H](NC[C@@H]3CCCO3)CC2)cc1-c1cc(NCC2CCOCC2)cnc1Cl [Compound 65] | < 8 |

| Compound | IC50 [nM] |
| --- | --- |
| OCCNc1cc(-c2cncc(NCc3cccc(F)c3)c2)c(Cl)cn1 [Compound 30] | < 8 |
| COc1cccc(CNc2cncc(-c3cc(N[C@H]4CC[C@H](N)CC4)ncc3Cl)c2)c1 [Compound 15] | 8 |
| O[C@@H](CN[C@H]1CC[C@H](Nc2cc(-c3cc(NCC4CCOCC4)cnc3Cl)c(Cl)cn2)CC1)C(F)(F)F [Compound 73] | 2 |
| OCCNc1cc(-c2cnc(N3CCOCC3)c(NCc3cccc(F)c3)c2)c(Cl)cn1 [Compound 37] | 6920 |
| N[C@H]1CC[C@H](Nc2cc(-c3cncc(NCc4ccc(F)cc4)c3)c(Cl)cn2)CC1 [Compound 33] | < 8 |
| N[C@H]1CC[C@H](Nc2cc(-c3cncc(NCc4cc(F)cc(F)c4)c3)c(Cl)cn2)CC1 [Compound 64] | < 8 |
| OCC(CO)Nc1cc(-c2cncc(NCc3cccc(F)c3)c2)c(Cl)cn1 [Compound 59] | 130 |
| O[C@H](CN[C@H]1CC[C@H](Nc2cc(-c3cc(NCC4CCOCC4)cnc3Cl)c(Cl)cn2)CC1)C(F)(F)F [Compound 74, (R)-3-(trans-4-(2,5′-dichloro-5-((tetrahydro-2H-pyran-4-yl)methyl)amino-3,4′-bipyridin-2′-ylamino)cyclohexylamino)-1,1,1-trifluoropropan-2-ol] | 1 |
| N[C@H]1CC[C@H](Nc2cc(-c3cncc(NCc4ccncc4)c3)c(Cl)cn2)CC1 [Compound 71] | < 8 |
| N[C@H]1CC[C@H](Nc2cc(-c3cnc(N4CCOCC4)c(NCC4CCOCC4)c3)c(Cl)cn2)CC1 [Compound 26, N2′-(trans-4-aminocyclohexyl)-5′-chloro-6-morpholino-N5-((tetrahydro-2H-pyran-4-yl)methyl)-3,4′-bipyridine-2′,5-diamine] | 1960 |
| COCCNc1cc(-c2cncc(NCC3CCOCC3)c2)c(Cl)cn1 [Compound 58] | 2260 |
| N[C@H]1CC[C@H](Nc2cc(-c3cnc(O)c(NCC4CCOCC4)c3)c(Cl)cn2)CC1 [Compound 87, 2′-(trans-4-aminocyclohexylamino)-5′-chloro-5-((tetrahydro-2H-pyran-4-yl)methyl)amino-3,4′-bipyridin-6-ol] | 420 |
| Clc1cnc(NCC[C@H]2CCCNC2)cc1-c1cncc(NCC2CCOCC2)c1 [Compound 56] | 68 |
| Fc1cccc(CNc2cncc(-c3cc(NCC[C@H]4CCCNC4)ncc3Cl)c2)c1 [Compound 49] | < 8 |
| O[C@H]1CC[C@H](Nc2cc(-c3cnc(N4CCOCC4)c(NCC4CCOCC4)c3)c(Cl)cn2)CC1 [Compound 46] | 1830 |
| CN1CCC(CNc2cc(-c3cncc(NCc4cccc(F)c4)c3)c(Cl)cn2)CC1 [Compound 69] | < 8 |
| O[C@H]1CC[C@H](Nc2cc(-c3cnc(N4CCOCC4)c(NCc4cccc(F)c4)c3)c(Cl)cn2)CC1 [Compound 53] | 660 |
| Cc1cccc(CNc2cncc(-c3cc(N[C@H]4CC[C@H](N)CC4)ncc3Cl)c2)c1 [Compound 34] | < 8 |
| O[C@H]1CCCC[C@@H]1N[C@H]1CC[C@H](Nc2cc(-c3cnc(Cl)c(NCC4CCOCC4)c3)c(Cl)cn2)CC1 [Compound 91] | 2.7 |
| CN(C)[C@H]1CC[C@H](Nc2cc(-c3cncc(NCc4cccc(F)c4)c3)c(Cl)cn2)CC1 [Compound 31, 5′-chloro-N2′-(trans-4-(dimethylamino)cyclohexyl)-N5-(3-fluorobenzyl)-3,4′-bipyridine-2′,5-diamine] | < 8 |
| Fc1cccc(CNc2cncc(-c3cc(NC4CCCC4)ncc3Cl)c2)c1 [Compound 48] | < 8 |
| N[C@H]1CC[C@H](Nc2cc(-c3cncc(NCc4cccc(F)c4)c3)ccn2)CC1 [Compound 44, N2′-(trans-4-aminocyclohexyl)-N5-(3-fluorobenzyl)-3,4′-bipyridine-2′,5-diamine] | < 8 |
